The source of these data is ChEMBL document CHEMBL1147799, “An integrated in silico 3D model-driven discovery of a novel, potent, and selective amidosulfonamide 5-HT1A agonist (PRX-00023) for the treatment of anxiety and depression” (J Med Chem, 2006).

Series [1] in a line: Half life in Sprague-Dawley rat at 3 mg/kg, po. Particulars: in vivo. The arrangement: dose 3 mg/kg, route oral. It counts as ADME, organism-based.
Series [2] is described as follows: Half life in Beagle dog at 3 mg/kg, po. The series is classed as ADME, organism-based, Canis lupus familiaris. Particulars: in vivo. The arrangement: dose 3 mg/kg, route oral.
The nature of series [3]: Cmax in Beagle dog at 3 mg/kg, po. It counts as ADME, organism-based, Canis lupus familiaris. The arrangement: dose 3 mg/kg, route oral. Particulars: in vivo.
Series [4] in a line: Binding affinity to adrenergic alpha receptor by radioligand binding assay.
In series [5] the target is Cytochrome P450 3A4 (Homo sapiens, UniProt P08684). Description: Inhibition of human recombinant cytochrome P450 3A4. The series is classed as ADME. Particulars: recombinant enzyme.
Cytochrome P450 3A4, sequence (P08684 whole entry): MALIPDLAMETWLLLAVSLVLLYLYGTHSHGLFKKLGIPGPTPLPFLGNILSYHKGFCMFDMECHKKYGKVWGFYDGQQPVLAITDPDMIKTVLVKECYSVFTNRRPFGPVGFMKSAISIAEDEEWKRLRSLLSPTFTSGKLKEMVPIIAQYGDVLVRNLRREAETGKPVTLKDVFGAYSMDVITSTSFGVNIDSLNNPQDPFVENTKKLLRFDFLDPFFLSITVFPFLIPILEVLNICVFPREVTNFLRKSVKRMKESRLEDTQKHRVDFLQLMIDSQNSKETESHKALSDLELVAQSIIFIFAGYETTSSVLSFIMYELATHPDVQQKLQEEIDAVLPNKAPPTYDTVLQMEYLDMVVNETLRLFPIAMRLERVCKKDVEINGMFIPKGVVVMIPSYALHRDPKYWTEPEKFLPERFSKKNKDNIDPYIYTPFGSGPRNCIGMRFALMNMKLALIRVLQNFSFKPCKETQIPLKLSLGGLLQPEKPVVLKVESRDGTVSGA
Series [6] deals with Cytochrome P450 2D6 (Homo sapiens, UniProt P10635). Description: Inhibition of human recombinant cytochrome P450 2D6. The series is classed as ADME. Particulars: recombinant enzyme.
Cytochrome P450 2D6, sequence (P10635 whole entry): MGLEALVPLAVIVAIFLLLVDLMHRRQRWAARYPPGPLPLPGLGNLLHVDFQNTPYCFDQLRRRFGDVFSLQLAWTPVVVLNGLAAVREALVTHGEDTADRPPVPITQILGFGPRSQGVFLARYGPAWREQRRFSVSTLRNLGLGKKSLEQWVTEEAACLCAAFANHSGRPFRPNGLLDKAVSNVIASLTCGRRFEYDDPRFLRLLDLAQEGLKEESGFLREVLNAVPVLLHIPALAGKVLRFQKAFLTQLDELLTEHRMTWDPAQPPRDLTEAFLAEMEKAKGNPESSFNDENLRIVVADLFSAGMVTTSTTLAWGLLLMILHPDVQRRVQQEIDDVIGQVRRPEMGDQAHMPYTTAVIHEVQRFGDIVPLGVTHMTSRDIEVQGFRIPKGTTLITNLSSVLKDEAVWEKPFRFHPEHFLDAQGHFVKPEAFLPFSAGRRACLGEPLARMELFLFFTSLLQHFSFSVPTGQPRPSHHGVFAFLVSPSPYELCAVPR
Series [7] concerns the target 5-hydroxytryptamine receptor 5A (Homo sapiens, UniProt P47898). Description: Binding affinity to human 5HT5A receptor by radioligand binding assay.
The nature of series [8]: Ratio of drug level in brain against serum in Sprague-Dawley rat at 3 mg/kg, po or 1 mg/kg, iv after 1 hr. It counts as ADME, organism-based. Particulars: read-out: BBR.
Series [9] can be described thus: Binding affinity to neurotensin receptor by radioligand binding assay.
In series [10] the target is Nociceptin receptor (Homo sapiens, UniProt P41146). Description: Binding affinity to orphanin receptor by radioligand binding assay.
Nociceptin receptor, sequence (P41146 whole entry): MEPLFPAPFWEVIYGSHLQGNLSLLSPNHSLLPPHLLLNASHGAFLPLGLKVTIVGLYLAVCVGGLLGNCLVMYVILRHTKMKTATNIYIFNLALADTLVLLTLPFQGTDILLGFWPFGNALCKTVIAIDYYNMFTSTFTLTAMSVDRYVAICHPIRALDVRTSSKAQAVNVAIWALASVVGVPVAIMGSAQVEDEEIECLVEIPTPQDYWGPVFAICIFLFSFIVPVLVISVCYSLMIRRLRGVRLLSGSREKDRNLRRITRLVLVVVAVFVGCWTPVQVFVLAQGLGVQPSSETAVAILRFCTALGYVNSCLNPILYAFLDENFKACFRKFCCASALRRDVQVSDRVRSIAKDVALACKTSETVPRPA
Series [11] in a line: Half life in human liver microsome at 5 uM. The series is classed as ADME. Particulars: liver microsomes. (Liver microsomes are vesicles of endoplasmic reticulum, rich in cytochrome P450 enzymes.)
A short description of series [12]: Oral bioavailability in Beagle dog at 3 mg/kg, po and 1 mg/kg, iv. Particulars: in vivo. The series is classed as ADME, organism-based, Canis lupus familiaris.
Series [13] in a line: Oral bioavailability in Sprague-Dawley rat at 3 mg/kg, po and 1 mg/kg, iv. The series is classed as ADME, organism-based. Particulars: in vivo.
Series [14] addresses Opioid receptors; mu/kappa/delta (Homo sapiens, UniProt P41145+P41143+P35372). As to the kind of experiment: Binding affinity to opioid receptor by radioligand binding assay. It counts as protein assay.
The target of series [15] is T1, Alpha-2A adrenergic receptor (Rattus norvegicus) (UniProt P22909).
T1 sequence (whole entry): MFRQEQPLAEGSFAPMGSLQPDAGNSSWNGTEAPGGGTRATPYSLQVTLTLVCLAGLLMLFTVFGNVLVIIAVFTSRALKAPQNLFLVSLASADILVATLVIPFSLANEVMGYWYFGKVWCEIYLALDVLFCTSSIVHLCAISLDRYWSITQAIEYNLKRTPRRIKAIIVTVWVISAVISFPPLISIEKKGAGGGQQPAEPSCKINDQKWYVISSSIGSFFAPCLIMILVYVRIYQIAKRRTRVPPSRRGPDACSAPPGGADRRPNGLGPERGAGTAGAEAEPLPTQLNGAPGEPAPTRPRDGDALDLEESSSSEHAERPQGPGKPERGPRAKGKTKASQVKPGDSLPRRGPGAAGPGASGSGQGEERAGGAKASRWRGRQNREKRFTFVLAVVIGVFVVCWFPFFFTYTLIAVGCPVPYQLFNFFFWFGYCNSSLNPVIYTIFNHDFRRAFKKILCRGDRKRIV
As to the kind of experiment: Displacement of [3H]RX 821002 from Adrenergic alpha-2a receptor in rat cerebral cortex cells at 1 uM. It counts as cell-based. (Loss of bound radioactivity is the signal in a displacement assay; it reports binding, not function.)

Series [16] relates to Mus musculus. Description: Decrease in basal rectal temperature in stress-induced hyperthermic 129S6/SvEvTac mouse at 20 mg/kg, po. It counts as functional, organism-based. Also on record: dose 20 mg/kg.
Series [17] in a line: Half life in human liver S9 fraction at 5 uM. The series is classed as ADME.

Calls of active or inactive are those of the source. The rule behind the calls is not given here. A value given as a limit tells only on which side of the number the result lay.

5-hydroxytryptamine receptor 5A, sequence (P47898 whole entry): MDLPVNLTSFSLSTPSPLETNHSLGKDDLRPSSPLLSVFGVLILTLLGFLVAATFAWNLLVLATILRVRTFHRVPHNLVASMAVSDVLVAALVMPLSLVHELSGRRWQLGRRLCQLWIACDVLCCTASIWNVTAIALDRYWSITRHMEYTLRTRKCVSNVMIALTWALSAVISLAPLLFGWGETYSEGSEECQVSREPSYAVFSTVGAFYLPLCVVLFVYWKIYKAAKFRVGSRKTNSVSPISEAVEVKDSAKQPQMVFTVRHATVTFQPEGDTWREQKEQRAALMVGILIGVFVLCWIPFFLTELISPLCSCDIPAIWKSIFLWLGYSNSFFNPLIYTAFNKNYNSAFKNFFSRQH

Consider `CC(=O)Nc1cccc(N2CCN(CCCCNS(=O)(=O)CC3CCCCC3)CC2)c1` [NALUZOTAN], for which the half-life (in general, how long it takes for the measured level to halve) in [1] was 2 h; in series [2], 1.1 h. In addition, the peak concentration (Cmax) (in general, the peak of the concentration-time curve) in [3] was 174 ng/mL. The Ki (usually a measure of affinity in units of concentration, obtained from inhibition or displacement) in [4] is over 2000 nM; in [7] it was over 5000 nM; in [9] it was over 2000 nM; in [10], over 2000 nM; in series [14], over 2000 nM. Further, the Inhibition entry in series [5] and in series [6] was “Not Active” throughout. In series [8], the Kp at 1 h turned out to be 0.5. The half-life at 5 µM in series [11] came to 0.467 h; in series [17], 1.08 h. The bioavailability (commonly the share of a dose that reaches the circulation, judged against a reference dose that is usually intravenous) in series [12] amounted to 16%; in series [13], 11%. This compound registered an Activity in [15] of 0%. Besides, the result in series [16] was Active.
